# Literature values, collected in patent publication US4933445A, “Heteroazabenzobicyclic carboxamide 5-HT3 antagonists” (Rorer Pharmaceutical Corporation, priority 1988, dated 1990).
# Test system: 5-HT3 receptor
# Details: becomes more prominent at higher doses
smiles,measurement,value
CCN(CC)CCNC(=O)c1cc(Cl)c(N)cc1OC [Metoclopramide],5-HT3-antagonist activity,weak
